Measurements reported in the supplement of paper PMC3937590.

Experiments:
Assay in all cases: -log10 GI50 (growth inhibition 50%) (-log10(M)); higher = more potent growth inhibition
BT483 = test system: BT483
Outline: (§1)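 Breast cancer cell lines were exposed to each compound for 72 hours at nine doses in 1:5 serial dilution, in triplicate, with a luminescence read-out against a time-zero plate. A Gompertz curve was fitted to the dose-response data by nonlinear least squares. The value is minus log10 of GI50, the molar concentration giving the set level of growth inhibition. Values equal to the top dose carry a < qualifier.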

UACC812 = test system: UACC812
Outline: as §1

T47D = test system: T47D
Outline: as §1

SUM229PE = test system: SUM229PE
Outline: as §1

HCC1806 = test system: HCC1806
Outline: as §1

HCC1937 = test system: HCC1937
Outline: as §1

SUM52PE = test system: SUM52PE
Outline: as §1

MCF10A = test system: MCF10A
Outline: as §1

ZR751 = test system: ZR751
Outline: as §1

HCC3153 = test system: HCC3153
Outline: as §1

LY2 = test system: LY2
Outline: as §1

T47D_KBluc = test system: T47D_KBluc
Outline: as §1

SKBR3 = test system: SKBR3
Outline: as §1

MDAMB157 = test system: MDAMB157
Outline: as §1

SUM1315MO2 = test system: SUM1315MO2
Outline: as §1

SUM149PT = test system: SUM149PT
Outline: as §1

MX1 = test system: MX1
Outline: as §1

HCC70 = test system: HCC70
Outline: as §1

184B5 = test system: 184B5
Outline: as §1

SUM225CWN = test system: SUM225CWN
Outline: as §1

Row | SMILES | -log10 GI50 (BT483) | -log10 GI50 (T47D) | -log10 GI50 (HCC1806) | -log10 GI50 (HCC1937) | -log10 GI50 (HCC3153) | -log10 GI50 (T47D_KBluc) | -log10 GI50 (SKBR3) | -log10 GI50 (MDAMB157) | -log10 GI50 (UACC812) | -log10 GI50 (SUM229PE) | -log10 GI50 (SUM52PE) | -log10 GI50 (MCF10A) | -log10 GI50 (ZR751) | -log10 GI50 (LY2) | -log10 GI50 (SUM1315MO2) | -log10 GI50 (SUM149PT) | -log10 GI50 (MX1) | -log10 GI50 (HCC70) | -log10 GI50 (184B5) | -log10 GI50 (SUM225CWN)
1 | Cc1c(O)cccc1C(=O)N[C@@H](CSc1ccccc1)[C@H](O)CN1C[C@H]2CCCC[C@H]2C[C@H]1C(=O)NC(C)(C)C [Nelfinavir] | 5.01 | 4.88 | 5.11 | 5.15 | 5.21 | < 4.48 | 5.09 | 5.09 | < 4.48 | 4.84 | 4.75 | 4.9 | 4.94 | 5.05 | < 4.48 | 4.98 | 5.15 | 4.75 | 5.33 | 
2 | CC[C@H](CO)Nc1nc(NCc2ccccc2O)c2ncn(C(C)C)c2n1 [Olomoucine II] | 5.24 | 5.18 | 5.06 | 5.2 | 5.51 |  | 4.96 | 5.23 | 5.19 | 5.13 | 5.19 | 5.51 | 5.21 | 5.46 | 5.47 | 5.18 | 5.24 | 5.47 | 5.53 | 5.28
3 | CC(C)[C@H](CO)Nc1nc(Nc2cccc(Cl)c2)c2ncn(C(C)C)c2n1 [Purvalanol A] | 4.4 | < 3.78 | 4.14 | 4.37 | 3.83 | < 3.78 | 4.19 | < 3.78 |  | 4.91 | 4.79 | 4.29 | < 3.78 |  | 5.09 | 4.88 | < 3.78 | < 3.78 | 5.52 | 4.36

The next lines start with results.

Row | -log10 GI50 (BT483) | -log10 GI50 (T47D) | -log10 GI50 (HCC1806) | -log10 GI50 (HCC1937) | -log10 GI50 (HCC3153) | -log10 GI50 (T47D_KBluc) | -log10 GI50 (SKBR3) | -log10 GI50 (MDAMB157) | SMILES | -log10 GI50 (UACC812) | -log10 GI50 (SUM229PE) | -log10 GI50 (SUM52PE) | -log10 GI50 (MCF10A) | -log10 GI50 (ZR751) | -log10 GI50 (LY2) | -log10 GI50 (SUM1315MO2) | -log10 GI50 (SUM149PT) | -log10 GI50 (MX1) | -log10 GI50 (HCC70) | -log10 GI50 (184B5) | -log10 GI50 (SUM225CWN)
4 | 8.78 | 6.36 | 4.01 | 5.91 | 5.25 | 5.65 | 8.09 | < 3.78 | CO[C@H]1C[C@@H]2CC[C@@H](C)[C@@](O)(O2)C(=O)C(=O)N2CCCC[C@H]2C(=O)O[C@H]([C@H](C)C[C@@H]2CC[C@@H](O)[C@H](OC)C2)CC(=O)[C@H](C)/C=C(\C)[C@@H](O)[C@@H](OC)C(=O)[C@H](C)C[C@H](C)/C=C/C=C/C=C/1C [Rapamycin] | 7.33 | 4.86 | 8.52 | 6.34 |  |  | 5.56 | 5.03 | 5.77 | 6.92 | < 4.48 | 7.97
5 | 4.92 | 4.59 | 4.23 | 3.76 | 4.31 | 4.38 | 4.35 | 3.78 | CNC(=O)c1cc(Oc2ccc(NC(=O)Nc3ccc(Cl)c(C(F)(F)F)c3)cc2)ccn1 [Sorafenib] |  | 5 | 5.77 | 4.31 | 4.43 |  | 4.55 | 4.8 |  | 4.45 | 5.48 | 4.6
